The values below come from patent US20240199623A1 (ILDONG PHARMACEUTICAL CO., LTD., priority 2020, published 2024).

The assay deals with human wild type-CFTR (Homo sapiens, UniProt P13569). As to the kind of experiment: Cell-based YFP assay. Details: expressed in transfected cells; host or cells: CHO-K1 (Chinese hamster ovary). As to conditions: CHO-K1 cells expressing human wild type-CFTR and YFP-H148Q/I152L; forskolin 20 μM = 100% activity; read-out: Cell-based YFP Assay (EC50) Concentration Range. As to the method: Forskolin (Tocris cat. #1099), Dimethyl sulfoxide (Sigma cat. #D4540), FLUO star Omega microplate reader (BMG Labtech, Ortenberg, Germany), MARS Data Analysis Software (BMG Labtech), GraphPad Prism 5 (GraphPad Software, Inc.) Chinese hamster ovary (CHO-K1) cells expressing human wild type-CFTR and halide sensor YFP-H148Q/I152L were constructed and grown in Dulbecco's modified Eagle's medium (DMEM) supplemented with 10% FBS, 2 mM glutamine, 100 units/ml penicillin and 100 μg/ml streptomycin. Chinese hamster ovary (CHO-K1) cells expressing human wild type-CFTR and halide sensor YFP-H148Q/I152L were seeded in 96-well microplate with 2×10^4 cells/well and incubated in 37° C., 48 hours. Then, each well was washed 3 times with PBS and 100 μL PBS was added in each well. […] YFP fluorescence signal affected by I^− ion influx through CFTR channel was measured in 37° C., FLUO star Omega microplate reader according to the following steps: • i) basal 2 seconds; • ii) 140 mM I^− solution 100 μL addition to each well; • iii) YFP fluorescence signal measurement start after 6 seconds; and • iv) following 14 seconds signal detection in every 0.4 seconds periods. […] Experiments were performed in triplicates and the data was averaged. EC50 values were calculated with MARS Data Analysis Software (BMG Labtech) and GraphPad Prism 5.
Sequence of human wild type-CFTR (P13569 whole entry): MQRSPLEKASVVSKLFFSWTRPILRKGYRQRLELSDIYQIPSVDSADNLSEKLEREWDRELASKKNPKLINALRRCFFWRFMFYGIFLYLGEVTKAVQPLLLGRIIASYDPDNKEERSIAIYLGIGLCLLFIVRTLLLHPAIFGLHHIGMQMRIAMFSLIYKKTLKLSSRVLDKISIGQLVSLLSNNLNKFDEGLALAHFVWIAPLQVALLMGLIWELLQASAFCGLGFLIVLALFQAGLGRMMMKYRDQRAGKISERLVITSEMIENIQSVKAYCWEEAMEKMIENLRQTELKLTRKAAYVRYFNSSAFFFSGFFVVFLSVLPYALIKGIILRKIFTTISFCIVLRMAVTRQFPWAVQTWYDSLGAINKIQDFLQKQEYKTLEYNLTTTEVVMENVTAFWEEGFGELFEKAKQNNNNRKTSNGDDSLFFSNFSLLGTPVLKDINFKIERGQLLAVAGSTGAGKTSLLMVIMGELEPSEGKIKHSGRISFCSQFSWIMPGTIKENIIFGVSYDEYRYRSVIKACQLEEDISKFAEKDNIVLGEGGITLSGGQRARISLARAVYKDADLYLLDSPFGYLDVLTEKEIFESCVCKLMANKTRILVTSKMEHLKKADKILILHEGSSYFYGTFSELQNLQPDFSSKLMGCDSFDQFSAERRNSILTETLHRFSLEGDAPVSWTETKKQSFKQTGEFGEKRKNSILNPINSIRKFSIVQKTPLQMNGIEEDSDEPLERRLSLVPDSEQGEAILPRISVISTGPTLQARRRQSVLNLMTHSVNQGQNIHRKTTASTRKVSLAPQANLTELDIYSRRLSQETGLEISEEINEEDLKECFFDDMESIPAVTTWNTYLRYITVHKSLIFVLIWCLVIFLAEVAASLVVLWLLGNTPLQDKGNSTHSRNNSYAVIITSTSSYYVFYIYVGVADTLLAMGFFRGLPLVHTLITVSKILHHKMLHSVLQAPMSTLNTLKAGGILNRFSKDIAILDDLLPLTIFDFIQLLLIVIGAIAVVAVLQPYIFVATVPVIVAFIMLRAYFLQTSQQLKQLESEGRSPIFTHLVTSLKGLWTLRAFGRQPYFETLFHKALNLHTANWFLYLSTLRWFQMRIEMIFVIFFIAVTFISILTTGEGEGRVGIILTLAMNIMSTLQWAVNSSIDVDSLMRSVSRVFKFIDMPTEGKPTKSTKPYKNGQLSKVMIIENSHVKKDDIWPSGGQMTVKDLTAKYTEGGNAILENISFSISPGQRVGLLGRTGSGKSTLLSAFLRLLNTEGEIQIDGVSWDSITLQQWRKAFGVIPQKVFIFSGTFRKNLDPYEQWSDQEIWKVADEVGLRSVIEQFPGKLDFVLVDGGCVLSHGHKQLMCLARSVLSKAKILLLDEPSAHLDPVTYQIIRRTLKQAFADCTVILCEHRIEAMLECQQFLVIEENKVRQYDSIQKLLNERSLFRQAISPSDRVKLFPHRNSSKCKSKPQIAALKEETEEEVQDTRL

Consider `COc1ccc(-c2ccnc3cc(C(=O)Nc4cccc(C(N)=O)c4)nn23)cc1OC` [Compound 54, N-(3-carbamoylphenyl)-7-(3,4-dimethoxyphenyl)pyrazolo [1,5-a]pyrimidine-2-carboxamide], for which the EC50 lay in the range of 200 to 2000 nM. On to `COc1ccc(-c2ccnc3cc(C(=O)N4CC(C)N(C(=O)c5ccccc5)C(C)C4)nn23)cc1OC` (centres unmarked) [Compound 348, (4-benzoyl-3,5-dimethylpiperazin-1-yl) (7-(3,4-dimethoxyphenyl)pyrazolo [1,5-a]pyrimidine-2-yl)methanone], for which the EC50 lay in the range of 200 to 2000 nM. Take `COC(=O)c1ccc(NC(=O)c2cc3nccc(-c4ccc(Cl)c(Cl)c4)n3n2)cc1` [Compound 40, methyl 4-(7-(3,4-dichlorophenyl)pyrazolo [1,5-a]pyrimidine-2-carboxamido) benzoate]: the EC50 was ≥ 2000 nM.

Consider `COc1ccc(-c2ccnc3cc(C(=O)N4CCc5ccc(C(=O)N6CCOCC6)cc5C4)nn23)cc1OC` [Compound 238, (7-(3,4-dimethoxyphenyl)pyrazolo[1,5-a]pyrimidin-2-yl)(7-(morpholine-4-carbonyl)-3,4-dihydroisoquinolin-2(1H)-yl)methanone], for which the EC50 was ≥ 2000 nM. For the compound `COc1ccc(-c2ccnc3cc(C(=O)N4CC[C@H](O)C4)nn23)cc1OC` [Compound 148, (S)-(7-(3,4-dimethoxyphenyl)pyrazolo[1,5-a]pyrimidin-2-yl)(3-hydroxypyrrolidin-1-yl)methanone], the EC50 is ≥ 2000 nM. Take `COc1ccc(-c2ccnc3cc(C(=O)N[C@H]4CC[C@H](C(=O)NCCCN5CCOCC5)CC4)nn23)cc1OC` [Compound 203, 7-(3,4-dimethoxyphenyl)-N-((1r,4r)-4-((3-morpholinopropyl)carbamoyl)cyclohexyl) pyrazolo[1,5-a]pyrimidine-2-carboxamide]: the EC50 was ≥ 2000 nM.

For the compound `CCOc1ccc(NC(=O)c2cc3nccc(-c4ccc(OC)c([N+](=O)[O-])c4)n3n2)cc1` [Compound 295, N-(4-ethoxyphenyl)-7-(4-methoxy-3-nitrophenyl)pyrazolo [1,5-a]pyrimidine-2-carboxamide], the EC50 is ≥ 2000 nM. Consider `COc1ccc(-c2ccnc3cc(C(=O)Nc4ccc(Br)cc4)nn23)cc1OC` [Compound 268, N-(4-bromophenyl)-7-(3,4-dimethoxyphenyl)pyrazolo [1,5-a]pyrimidine-2-carboxamide], for which the EC50 is < 200 nM. On to `COc1ccc(-c2ccnc3cc(C(=O)N[C@H]4CC[C@@H](C(=O)OCc5ccccn5)CC4)nn23)cc1OC` [Compound 247, pyridin-2-ylmethyl (1S,4S)-4-(7-(3,4-dimethoxyphenyl)pyrazolo [1,5-a]pyrimidine-2-carboxamido)cyclohexane-1-carboxylate], for which the EC50 lay in the range of 200 to 2000 nM. With `COc1ccc(-c2ccnc3cc(C(=O)N4CCN(C(=O)c5ncccn5)[C@@H](C)C4)nn23)cc1OC` [Compound 383, (S)-(7-(3,4-dimethoxy-phenyl)pyrazolo[1,5-a]pyrimidin-2-yl)(3-methyl-4-(pyrimidine-2-carbonyl)piperazin-1-yl)methanone], the EC50 fell in the range of 200 to 2000 nM.

With `CCOc1ccc(NC(=O)c2cc3nccc(-c4cccc(OC)c4)n3n2)cc1` [Compound 24, N-(4-ethoxyphenyl)-7-(3-methoxyphenyl)pyrazolo [1,5-a]pyrimidine-2-carboxamide], the EC50 is ≥ 2000 nM.

Take `COc1ccc(-c2ccnc3cc(C(=O)N4CCN(C(=O)c5ccc(C)cc5)[C@@H](C)C4)nn23)cc1OC` [Compound 351, (S)-(7-(3,4-dimethoxyphenyl)pyrazolo[1,5-a]pyrimidin-2-yl)(3-methyl-4-(4-methylbenzoyl)piperazin-1-yl)methanone]: the EC50 is < 200 nM. For the compound `COc1ccc(-c2ccnc3cc(C(=O)Nc4ccc(OC(=O)[C@@H](NC(=O)OCc5ccccc5)C(C)C)cc4)nn23)cc1OC` [Compound 171, 4-(7-(3,4-dimethoxyphenyl)pyrazolo[1,5-a]pyrimidine-2-carboxamido)phenyl ((benzyloxy)carbonyl)-L-valinate], the EC50 is < 200 nM. Turning to `COc1ccc(-c2ccnc3cc(C(=O)N4CCN(C(=O)c5ccccc5)[C@@H](C(C)C)C4)nn23)cc1OC` [Compound 376, (S)-(4-benzoyl-3-isopropylpiperazin-1-yl)(7-(3,4-dimethoxyphenyl)pyrazolo[1,5-a]pyrimidin-2-yl)methanone], the EC50 is < 200 nM. Regarding `COc1ccc(-c2ccnc3cc(C(=O)N[C@H]4CC[C@@H](C(=O)N5CCN(C)CC5)CC4)nn23)cc1OC` [Compound 240, 7-(3,4-dimethoxyphenyl)-N-((1S,4S)-4-(4-methylpiperazine-1-carbonyl)cyclohexyl) pyrazolo[1,5-a]pyrimidine-2-carboxamide], the EC50 is ≥ 2000 nM. For the compound `COc1ccc(-c2ccnc3cc(C(=O)N4CC[C@@H](NC(=O)C5CCN(C)CC5)C4)nn23)cc1OC` [Compound 188, (R)-N-(1-(7-(3,4-dimethoxyphenyl)pyrazolo [1,5-a]pyrimidine-2-carbonyl)pyrrolidin-3-yl)-1-methylpiperidine-4-carboxamide], the EC50 is ≥ 2000 nM.

Turning to `COc1ccc(-c2ccnc3cc(C(=O)Nc4ccc(C(=O)NCCCN5CCCC5)cc4)nn23)cc1OC` [Compound 224, 7-(3,4-dimethoxyphenyl)-N-(4-((3-(pyrrolidin-1-yl)propyl)carbamoyl)phenyl)pyrazolo[1,5-a]pyrimidine-2-carboxamide], the EC50 is ≥ 2000 nM. Consider `COc1ccc(-c2ccnc3cc(C(=O)N4CCN(C)CC4)nn23)cc1OC` [Compound 101, (7-(3,4-dimethoxyphenyl)pyrazolo[1,5-a]pyrimidin-2-yl)(4-methylpiperazin-1-yl)methanone], for which the EC50 was ≥ 2000 nM. In the case of `COc1ccc(-c2ccnc3cc(C(=O)N[C@H]4CC[C@H](C(=O)N5CCC(N6CCCCC6)CC5)CC4)nn23)cc1OC` [Compound 343, N-((1R,4R)-4-([1,4′-bipiperidine]-1′-carbonyl)cyclohexyl)-7-(3,4-dimethoxyphenyl)pyrazolo [1,5-a]pyrimidine-2-carboxamide], the EC50 is ≥ 2000 nM.

For `COc1ccc(-c2ccnc3cc(C(=O)N4CCc5cc(C(=O)N6CCOCC6)ccc54)nn23)cc1OC` [Compound 251, (7-(3,4-dimethoxyphenyl)pyrazolo[1,5-a]pyrimidin-2-yl)(5-(morpholine-4-carbonyl)indolin-1-yl) methanone], the EC50 was 200 to 2000 nM. In the case of `COc1ccc(-c2ccnc3cc(C(=O)N4CCN(C(=O)c5ccc(F)cc5)[C@@H](C)C4)nn23)cc1OC` [Compound 350, (S)-(7-(3,4-dimethoxyphenyl)pyrazolo[1,5-a]pyrimidin-2-yl)(4-(4-fluorobenzoyl)-3-methylpiperazin-1-yl) methanone] it was < 200 nM. For the compound `COc1ccc(-c2ccnc3cc(C(=O)Nc4ccc(N5CCOCC5)cn4)nn23)cc1[N+](=O)[O-]` [Compound 294, 7-(4-methoxy-3-nitrophenyl)-N-(5-morpholinopyridin-2-yl) pyrazolo[1,5-a] pyrimidine-2-carboxamide], the EC50 was ≥ 2000 nM.

For the compound `COc1ccc(-c2ccnc3cc(C(=O)Nc4ccc5c(c4)OCO5)nn23)cc1OC` [Compound 310, N-(benzo[d][1,3]dioxol-5-yl)-7-(3,4-dimethoxyphenyl)pyrazolo[1,5-a]pyrimidine-2-carboxamide], the EC50 is < 200 nM. On to `COc1ccc(-c2ccnc3cc(C(=O)N[C@H]4CC[C@H](C(=O)N5CCC(N6CCOCC6)CC5)CC4)nn23)cc1OC` [Compound 341, 7-(3,4-dimethoxyphenyl)-N-((1R,4R)-4-(4-morpholinopiperidine-1-carbonyl)cyclohexyl) pyrazolo[1,5-a] pyrimidine-2-carboxamide], for which the EC50 was ≥ 2000 nM. For `COc1ccc(-c2ccnc3cc(C(=O)N4CCN(C(=O)c5cccnc5)[C@@H](C)C4)nn23)cc1OC` [Compound 382, (S)-(7-(3,4-dimethoxy-phenyl)pyrazolo[1,5-a]pyrimidin-2-yl) (3-methyl-4-nicotinoylpiperazin-1-yl)methanone], the EC50 was < 200 nM. As to `COc1ccc(-c2ccnc3cc(C(=O)Nc4ccc(C(=O)N5CCN(C)[C@@H](C)C5)cc4)nn23)cc1OC` [Compound 195, (S)-7-(3,4-dimethoxyphenyl)-N-(4-(3,4-dimethylpiperazine-1-carbonyl)phenyl)pyrazolo [1,5-a]pyrimidine-2-carboxamide], the EC50 fell in the range of 200 to 2000 nM. Take `COc1ccc(-c2ccnc3cc(C(=O)N4CCN(Cc5ccccc5)[C@@H](C)C4)nn23)cc1OC` [Compound 206, (S)-(4-benzyl-3-methylpiperazin-1-yl) (7-(3,4-dimethoxyphenyl)pyrazolo [1,5-a]pyrimidin-2-yl)methanone]: the EC50 is 200 to 2000 nM. Then `COc1ccc(-c2ccnc3cc(C(=O)Nc4ccc(OC(C)C)cc4)nn23)cc1OC` [Compound 290, 7-(3,4-dimethoxyphenyl)-N-(4-isopropoxyphenyl)pyrazolo [1,5-a]pyrimidine-2-carboxamide], with 200 to 2000 nM; and `COc1ccc(-c2ccnc3cc(C(=O)Nc4ccc(N5CCN(C(C)C)CC5)cc4)nn23)cc1OC` [Compound 266, 7-(3,4-dimethoxyphenyl)-N-(4-(4-isopropylpiperazin-1-yl)phenyl)pyrazolo[1,5-a]pyrimidine-2-carboxamide], with < 200 nM.
